Data on 1 compound can be found in ChEMBL document CHEMBL5390264, “Exploring Fatty Acid Mimetics as NR4A Ligands” (J Med Chem, 2023).

Calls of active or inactive are those of the source. The calls are words filed in the database; no cut-off is given here.

Common to all, as to assay type: cell-based
Assay [1] is described as follows: Selectivity ratio for agonist activity at VDR LBD (unknown origin) transiently transfected in HEK293T cells to agonist activity at human NOR-1 LBD transiently transfected in HEK293T cells.
In assay [2] the target is T1, Nuclear receptor subfamily 4 group A member 2 (Homo sapiens, UniProt P43354). Put plainly: Agonist activity at full length human Nurr1 transiently transfected in HEK293T cells co-transfected with pFR-Luc-NBRE incubated for 16 hrs by Gal4-hybrid reporter gene based Dual-glo luciferase assay. For orientation: In a reporter assay the amount or activity of a reporter protein is the signal.
T1 sequence (P43354 whole entry, the tested form may be a part): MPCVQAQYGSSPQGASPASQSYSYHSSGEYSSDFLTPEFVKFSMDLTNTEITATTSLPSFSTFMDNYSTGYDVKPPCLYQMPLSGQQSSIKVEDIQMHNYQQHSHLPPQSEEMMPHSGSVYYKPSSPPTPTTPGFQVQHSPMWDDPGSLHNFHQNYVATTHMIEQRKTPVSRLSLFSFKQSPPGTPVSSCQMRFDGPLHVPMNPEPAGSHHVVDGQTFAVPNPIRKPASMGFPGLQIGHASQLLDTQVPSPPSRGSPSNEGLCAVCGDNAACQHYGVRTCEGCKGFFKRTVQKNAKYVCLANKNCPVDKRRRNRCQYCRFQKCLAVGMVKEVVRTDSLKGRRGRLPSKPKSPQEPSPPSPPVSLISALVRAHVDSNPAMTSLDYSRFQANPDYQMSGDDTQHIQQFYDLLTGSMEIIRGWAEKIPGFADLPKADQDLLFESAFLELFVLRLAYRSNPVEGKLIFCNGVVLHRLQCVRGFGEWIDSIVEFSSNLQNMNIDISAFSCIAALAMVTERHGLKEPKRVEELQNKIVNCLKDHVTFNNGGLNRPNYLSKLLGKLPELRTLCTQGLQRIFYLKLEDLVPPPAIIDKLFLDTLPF

Assay [3] has as its target T2, Retinoic acid receptor RXR-alpha (Homo sapiens) (UniProt P19793).
T2 sequence (whole entry): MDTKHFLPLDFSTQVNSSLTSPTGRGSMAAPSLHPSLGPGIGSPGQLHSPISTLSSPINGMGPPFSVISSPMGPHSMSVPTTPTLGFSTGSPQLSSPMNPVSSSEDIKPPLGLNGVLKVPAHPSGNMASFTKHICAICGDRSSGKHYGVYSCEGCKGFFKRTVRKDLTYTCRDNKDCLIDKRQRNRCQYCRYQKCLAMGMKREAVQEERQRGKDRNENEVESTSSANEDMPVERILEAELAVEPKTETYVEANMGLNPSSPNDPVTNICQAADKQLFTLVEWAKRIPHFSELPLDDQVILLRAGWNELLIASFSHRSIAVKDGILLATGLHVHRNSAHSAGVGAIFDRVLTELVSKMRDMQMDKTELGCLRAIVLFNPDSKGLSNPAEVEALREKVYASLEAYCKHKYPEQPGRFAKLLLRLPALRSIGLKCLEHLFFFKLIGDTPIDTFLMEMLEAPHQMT
The assay can be described thus: Agonist activity at human full length RXRalpha transiently transfected in HEK293T cells at 1 uM incubated for 16 hrs by Gal4-hybrid reporter gene based Dual-glo luciferase assay.

Assay [4] addresses T3, Nuclear receptor subfamily 4immunitygroup A member 1 (Homo sapiens, UniProt P22736). The assay can be described thus: Agonist activity at human Nur77 LBD transiently transfected in HEK293T cells assessed as maximal activation incubated for 16 hrs by Gal4-hybrid reporter gene based Dual-glo luciferase assay relative to control. The settings on record: filed as agonist.
Assay [5] concerns the target T3, Nuclear receptor subfamily 4immunitygroup A member 1. Put plainly: Agonist activity at human Nur77 LBD transiently transfected in HEK293T cells incubated for 16 hrs by Gal4-hybrid reporter gene based Dual-glo luciferase assay.
Assay [6] concerns the target T4, Nuclear receptor subfamily 4 group A member 3 (Homo sapiens, UniProt Q92570). The assay can be described thus: Agonist activity at human NOR-1 LBD transiently transfected in HEK293T cells incubated for 16 hrs by Gal4-hybrid reporter gene based Dual-glo luciferase assay.
Assay [7] concerns the target T4, Nuclear receptor subfamily 4 group A member 3. The assay can be described thus: Agonist activity at human NOR-1 LBD transiently transfected in HEK293T cells assessed as maximal activation incubated for 16 hrs by Gal4-hybrid reporter gene based Dual-glo luciferase assay relative to control. The settings on record: filed as agonist.
The nature of assay [8]: Selectivity ratio for agonist activity at RARalpha LBD (unknown origin) transiently transfected in HEK293T cells to agonist activity at human Nur77 LBD transiently transfected in HEK293T cells.
Assay [9] addresses T5, Bile acid receptor (Homo sapiens) (UniProt Q96RI1).
T5 sequence (whole entry): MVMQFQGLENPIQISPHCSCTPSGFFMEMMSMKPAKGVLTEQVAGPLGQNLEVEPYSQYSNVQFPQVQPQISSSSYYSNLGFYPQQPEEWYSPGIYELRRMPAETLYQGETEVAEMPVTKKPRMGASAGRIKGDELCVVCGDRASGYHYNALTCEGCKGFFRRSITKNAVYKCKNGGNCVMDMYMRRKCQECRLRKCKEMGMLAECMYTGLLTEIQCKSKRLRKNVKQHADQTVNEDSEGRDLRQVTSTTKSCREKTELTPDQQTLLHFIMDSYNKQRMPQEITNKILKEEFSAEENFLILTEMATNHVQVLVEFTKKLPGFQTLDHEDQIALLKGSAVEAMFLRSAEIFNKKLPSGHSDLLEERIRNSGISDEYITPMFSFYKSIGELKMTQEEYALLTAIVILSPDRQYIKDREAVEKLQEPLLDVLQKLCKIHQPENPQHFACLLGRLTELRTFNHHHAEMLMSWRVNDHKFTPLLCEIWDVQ
The assay can be described thus: Agonist activity at FXR LBD (unknown origin) transiently transfected in HEK293T cells at 1 uM incubated for 16 hrs by Gal4-hybrid reporter gene based Dual-glo luciferase assay.

A short description of assay [10]: Selectivity ratio for agonist activity at RXRalpha LBD (unknown origin) transiently transfected in HEK293T cells to agonist activity at human Nur77 LBD transiently transfected in HEK293T cells.
Assay [11] can be described thus: Selectivity ratio for agonist activity at PPARgamma LBD (unknown origin) transiently transfected in HEK293T cells to agonist activity at human Nur77 LBD transiently transfected in HEK293T cells.
The target of assay [12] is T1, Nuclear receptor subfamily 4 group A member 2. The assay can be described thus: Agonist activity at full length human Nurr1 transiently transfected in HEK293T cells co-transfected with pFR-Luc-NurRE incubated for 16 hrs by Gal4-hybrid reporter gene based Dual-glo luciferase assay.
Assay [13] can be described thus: Selectivity ratio for agonist activity at RXRalpha LBD (unknown origin) transiently transfected in HEK293T cells to agonist activity at human Nurr1 LBD transiently transfected in HEK293T cells.
For assay [14], the target named is T6, Thyroid hormone receptor alpha (Homo sapiens) (UniProt P10827).
T6 sequence (whole entry): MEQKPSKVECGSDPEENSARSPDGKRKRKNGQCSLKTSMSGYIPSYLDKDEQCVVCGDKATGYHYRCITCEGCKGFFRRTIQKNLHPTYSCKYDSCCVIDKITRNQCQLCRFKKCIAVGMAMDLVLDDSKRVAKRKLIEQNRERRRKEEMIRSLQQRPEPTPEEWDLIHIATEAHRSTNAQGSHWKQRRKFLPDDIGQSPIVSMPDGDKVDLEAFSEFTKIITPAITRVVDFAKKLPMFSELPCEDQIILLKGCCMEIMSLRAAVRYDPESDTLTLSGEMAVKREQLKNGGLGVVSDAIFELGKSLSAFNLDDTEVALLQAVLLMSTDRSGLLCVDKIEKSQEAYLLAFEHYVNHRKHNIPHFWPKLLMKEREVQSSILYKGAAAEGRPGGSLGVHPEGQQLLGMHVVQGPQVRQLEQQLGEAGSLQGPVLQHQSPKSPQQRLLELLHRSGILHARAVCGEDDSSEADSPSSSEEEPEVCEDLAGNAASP
The assay can be described thus: Agonist activity at THRalpha LBD (unknown origin) transiently transfected in HEK293T cells at 1 uM incubated for 16 hrs by Gal4-hybrid reporter gene based Dual-glo luciferase assay.

The nature of assay [15]: Selectivity ratio for agonist activity at PPARdelta LBD (unknown origin) transiently transfected in HEK293T cells to agonist activity at human Nur77 LBD transiently transfected in HEK293T cells.
A short description of assay [16]: Selectivity ratio for agonist activity at PPARgamma LBD (unknown origin) transiently transfected in HEK293T cells to agonist activity at human NOR-1 LBD transiently transfected in HEK293T cells.

T3 sequence (P22736 whole entry, the tested form may be a part): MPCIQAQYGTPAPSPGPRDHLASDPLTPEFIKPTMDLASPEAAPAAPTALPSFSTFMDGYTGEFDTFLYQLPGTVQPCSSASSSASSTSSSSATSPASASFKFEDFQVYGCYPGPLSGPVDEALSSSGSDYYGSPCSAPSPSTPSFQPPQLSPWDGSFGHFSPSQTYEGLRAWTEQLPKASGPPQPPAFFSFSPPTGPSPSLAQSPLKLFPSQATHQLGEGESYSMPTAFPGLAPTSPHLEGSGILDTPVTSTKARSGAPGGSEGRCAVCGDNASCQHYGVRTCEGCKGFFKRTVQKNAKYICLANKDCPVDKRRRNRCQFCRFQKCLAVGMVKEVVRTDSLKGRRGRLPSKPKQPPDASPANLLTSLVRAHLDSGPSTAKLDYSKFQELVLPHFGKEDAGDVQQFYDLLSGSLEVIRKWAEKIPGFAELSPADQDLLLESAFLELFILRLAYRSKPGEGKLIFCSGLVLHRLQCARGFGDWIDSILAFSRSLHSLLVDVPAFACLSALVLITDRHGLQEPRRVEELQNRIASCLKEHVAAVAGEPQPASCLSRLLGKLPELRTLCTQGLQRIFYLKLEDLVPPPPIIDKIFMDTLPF
T4 sequence (Q92570 whole entry, the tested form may be a part): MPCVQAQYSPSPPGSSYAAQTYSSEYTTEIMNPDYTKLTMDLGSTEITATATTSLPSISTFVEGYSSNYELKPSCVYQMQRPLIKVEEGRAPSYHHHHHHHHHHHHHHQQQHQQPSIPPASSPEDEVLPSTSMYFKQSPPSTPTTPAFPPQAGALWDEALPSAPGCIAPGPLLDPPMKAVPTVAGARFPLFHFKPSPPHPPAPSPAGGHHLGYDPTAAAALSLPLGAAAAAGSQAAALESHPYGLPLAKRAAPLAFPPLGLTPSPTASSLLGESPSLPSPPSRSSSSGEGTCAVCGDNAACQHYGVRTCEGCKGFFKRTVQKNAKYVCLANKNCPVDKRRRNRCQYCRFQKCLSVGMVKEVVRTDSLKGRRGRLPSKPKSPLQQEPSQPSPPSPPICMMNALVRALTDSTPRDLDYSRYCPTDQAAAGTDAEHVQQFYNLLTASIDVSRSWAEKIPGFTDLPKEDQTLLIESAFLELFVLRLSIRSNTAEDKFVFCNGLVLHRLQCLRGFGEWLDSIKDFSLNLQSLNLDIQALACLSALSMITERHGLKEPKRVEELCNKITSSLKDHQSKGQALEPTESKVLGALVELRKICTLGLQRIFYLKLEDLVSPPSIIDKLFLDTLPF

For orientation: EC50 means the concentration giving half of the maximal effect. Low values mean higher potency in that assay, high ones lower potency in that assay. As usually defined, the Emax is the greatest response seen or fitted, relative to the assay's reference. Consider `CC(C)(C)c1ccc(COc2cccc(C(=O)O)c2)cc1`, for which the Selectivity ratio in assay [1], in [8], in assay [10], in [11], in assay [13] and in [15] was greater than 30 in each case. Moreover, the Selectivity ratio in [16] was greater than 30. In addition, the EC50 was 13 nM in assay [2], 140 nM in assay [5], 70 nM in assay [6] and 10 nM in [12]. Moreover, the result in assay [3], in [9] and in assay [14] was inactive. Also, the results for the Emax in assay [4] and in assay [7] were 163% and 185%, respectively.
